According to paper PMC12841663, “Antiprotozoal Potential of Cultivated Geranium macrorrhizum Against Giardia duodenalis, Trichomonas gallinae and Leishmania infantum” (International Journal of Molecular Sciences, 2026):
Values after ≈ are worked out from the molar mass of the structure shown.

Experiments:
[1] = system: L. infantum promastigotes; assay: Anti-Leishmania activity assay on promastigotes (MTT viability); type: cell-based; conditions: pure compounds
Method: Anti-Leishmania (AL) activity was assessed on L. infantum promastigotes (MCAN/ES/98/LLM-722), kindly provided by Dr. J.M. Requena from CBM-CSIC, as well as on L. infantum (M/CAN/ES/96/BCN150 zymodeme MON-1), strain isolated from a dog with active visceral leishmaniasis. L. infantum promastigotes (MCAN/ES/98/LLM-722) were cultured in RPMI medium supplemented with 15% FBS and 10 μg/mL of hemin (Acros Organics, Madrid, Spain), grown at 26 °C. Promastigotes in logarithmic growth were seeded in 96-well flat-bottom plates at a volume of 100 μL of culture per well and incubated for 48 h. Promastigotes for macrophage infection (M/CAN/ES/96/BCN150 zymodeme MON-1) were maintained at 26 °C in Schneider’s insect medium (Lonza, Basel, Switzerland) supplemented with 10% FBS and 100 U/mL penicillin and 100 μg/mL streptomycin (Lonza, Basel, Switzerland) (Pen-Strep). Promastigotes in the stationary phase of growth (5–6 days) were washed twice in phosphate-buffered saline at 2700× g for 10 min at 22 °C and employed for macrophage infection.
EOs and pure compounds were solved in DMSO (Sigma, Madrid, Spain) (<1% final concentration). […] Trophozoites/promastigotes viability was assessed using the modified MTT colorimetric assay, as described previously in the literature, with results further validated by microscopic examination. The plate was analyzed in a spectrophotometer at a wavelength of 570 nm. The percentage of antiparasitic activity was calculated as growth inhibition, using the following formula: % AT = 100 − [(Ap − Ab) ÷ (Ac − Ab)] × 100, where Ap is the absorbance of the tested product, Ab the absorbance of the blank and Ac the absorbance of the control wells (culture without treatment).
Pure compounds were tested using the same method, although at concentrations of 100, 75, 50, 25, 10, and 1 μg/mL. Metronidazole (Acros Organics, Madrid, Spain) served as a reference compound for anti-Giardia activity and Anti-Trichomonas activity and amphotericin B for anti-Leishmania activity.
(§1) Data was analyzed using STATGRAPHICS Centurion XIX (https://www.statgraphics.com) (Statgraphics Technologies, Inc., The Plains, VA, USA). The mammalian cells and trophozoites viability were tested with each compound in a dose–response experiment to calculate their relative potency (CC50 or IC50 value, respectively). IC50 (μg/mL) expresses the dose of EOs, extracts or pure compounds needed to produce 50% mortality of trophozoites, while CC50 (μg/mL) expresses the dose of compounds necessary to produce 50% mortality of Vero cells.

[2] = Cytotoxicity of pure compounds on Vero cells (MTT); type: cell-based; conditions: African green monkey, Vero cells (kidney cells); 48 h exposure; 50% Vero cell mortality; MTT; read-out: Vero Cells CC50
Method: African green monkey kidney cells (Vero cells) were maintained in Dulbecco’s modified Eagle’s minimal essential medium (DMEM) (Thermo Fisher Scientific, Waltham, MA, USA) supplemented with 10% FBS and 1% Pen-Strep at 37 °C under a humidified atmosphere of 5% CO2/95% air.
Cells seeded in 96-well flat-bottom microplates with 100 μL medium per well (initial densities 10^4 cells per well) were exposed for 48 h to serial dilutions (100, 75, 50, 25, 10 and 1 µg/mL) of the tested compounds in DMSO (<1% final concentration). Cell viability was analyzed by the MTT colorimetric assay method, and the purple-colored formazan precipitate was dissolved with 100 μL of DMSO [23].
as §1

T. gallinae trophozoites = assay: Anti-Trichomonas activity assay (MTT viability); type: cell-based; conditions: pure compounds
Method: The anti-Trichomonas (AT) activity assay utilized T. gallinae trophozoites from an isolate obtained from a wood pigeon by Dr. […] EOs and pure compounds were solved in DMSO (Sigma, Madrid, Spain) (<1% final concentration). […] Trophozoites/promastigotes viability was assessed using the modified MTT colorimetric assay, as described previously in the literature, with results further validated by microscopic examination. The plate was analyzed in a spectrophotometer at a wavelength of 570 nm. The percentage of antiparasitic activity was calculated as growth inhibition, using the following formula: % AT = 100 - [(Ap - Ab) ÷ (Ac - Ab)] × 100, where Ap is the absorbance of the tested product, Ab the absorbance of the blank and Ac the absorbance of the control wells (culture without treatment). […] Metronidazole (Acros Organics, Madrid, Spain) served as a reference compound for anti-Giardia activity and Anti-Trichomonas activity and amphotericin B for anti-Leishmania activity. Data was analyzed using STATGRAPHICS Centurion XIX ([…].com) (Statgraphics Technologies, Inc., The Plains, VA, USA). The mammalian cells and trophozoites viability were tested with each compound in a dose-response experiment to calculate their relative potency (CC50 or IC50 value, respectively).

[3] = system: G. duodenalis trophozoites; assay: Anti-Giardia activity assay (MTT viability); type: cell-based; conditions: pure compounds
Method: Anti-Giardia (AG) activity assays were conducted on G. duodenalis trophozoites from the ATCC® 30957 strain (assemblage A), using flat-bottom microwell plates in quadruplicate. […] Incubation was carried out for 24 h at 37 °C. EOs and pure compounds were solved in DMSO (Sigma, Madrid, Spain) (<1% final concentration). […] Trophozoites/promastigotes viability was assessed using the modified MTT colorimetric assay, as described previously in the literature, with results further validated by microscopic examination. The plate was analyzed in a spectrophotometer at a wavelength of 570 nm. The percentage of antiparasitic activity was calculated as growth inhibition, using the following formula: % AT = 100 - [(Ap - Ab) ÷ (Ac - Ab)] × 100, where Ap is the absorbance of the tested product, Ab the absorbance of the blank and Ac the absorbance of the control wells (culture without treatment). […] Metronidazole (Acros Organics, Madrid, Spain) served as a reference compound for anti-Giardia activity and Anti-Trichomonas activity and amphotericin B for anti-Leishmania activity. Data was analyzed using STATGRAPHICS Centurion XIX ([…].com) (Statgraphics Technologies, Inc., The Plains, VA, USA). The mammalian cells and trophozoites viability were tested with each compound in a dose-response experiment to calculate their relative potency (CC50 or IC50 value, respectively).

[4] = system: intracellular amastigotes of L. infantum; assay: Infection index of DH82 macrophages infected with L. infantum (intracellular amastigotes); type: cell-based, Leishmania infantum; conditions: 1 µg/mL, 48 h
Vero cells = system: Vero cells; set-up: method as in PMID 36672727; conditions: cited from earlier work
[5] = system: L. infantum promastigotes; set-up: method as in doi:10.1080/10412905.2013.820669; conditions: cited from earlier work
[6] = system: L. infantum promastigotes; assay: Morphological evaluation by light microscopy (Diff-Quik), L. infantum; type: cell-based, Leishmania infantum; conditions: amphotericin B at 1 µg/mL
Method: L. infantum, T. gallinae and G. duodenalis were studied at 0, and 48 h after treatment with germacrone (100 µg/mL), and controls (DMSO 1%, metronidazole at 10 µg/mL for T. gallinae and G. duodenalis and amphotericin B at 1 µg/mL for L. infantum).
For L. infantum and T. gallinae, cultures in the exponential growth phase (10^7 promastigotes/mL and 5 × 10^5 trophozoites/mL, respectively) were treated in 96-well microplates. At each time point, quadruplicates were assigned per condition: growth control, germacrone, and the corresponding positive control (metronidazole or amphotericin B). For microscopy, quadruplicate wells corresponding to the same condition/time point were pooled prior to centrifugation to obtain sufficient biomass and a representative pellet for smear preparation. Pooled samples per condition/time point were centrifuged, resuspended in FBS and spread onto microscope slides. Once dried, samples were fixed and stained with Diff-Quik (Medion Diagnostic AG, Düdingen, Switzerland) following the manufacturer’s instructions. Additionally, three wells per condition (triplicates) were used for the MTT assay, with absorbance measured by spectrophotometry after 48 h.
Morphological changes were analyzed using light microscopy. Experiments were performed as independent biological replicates on different plates, and one Diff-Quik stained smear was obtained per condition and time point per biological replicate. For morphometric analysis, a total of 30 trophozoites per condition and time point were measured across the independent biological replicates and were selected by consecutive sampling during a predefined serpentine (zig-zag) scan across the preparation. Up to two eligible trophozoites per field (intact, well-focused and non-overlapping) were measured in sequential fields until n = 30 was reached, avoiding subjective selection of “representative” cells. Overlapping, partially visible, out-of-focus, edge-of-field, or debris-obscured trophozoites were excluded a priori. Trophozoites were photographed using a researcher’s mobile phone mounted to the microscope ocular. Calibration was performed at the same magnification using a stage micrometre and applied in ImageJ v. 1.54d. One Diff-Quik stained smear was obtained per condition/time point per biological replicate Cell length, cell width, cell surface, nuclear length, nuclear width, axoneme (only Giardia), and length of axostyle (only T. gallinae) were measured with ImageJ software, and the data were recorded in an Excel database for statistical analysis.
The Shapiro–Wilk test was used to assess the normality of the morphological variables. When data followed a normal distribution, Student’s t-test was applied; otherwise, non-parametric tests, such as the Mann–Whitney U test, was used. Values of p < 0.05 were considered significant. For the morphological analysis, the mean, standard deviation, median, and interquartile range were calculated using SPSS version 20 (IBM Corp., Armonk, NY, USA).

| Structure (SMILES) | IC50 [1] [mg/L] | CC50 at 48 h [2] [mg/L] | IC50 (T. gallinae trophozoites) [mg/L] | IC50 [3] [mg/L] | Infection Index ([4]; % infected x amastigotes per infected cell) | % Infected Cells ([4]; mean ± SD) [%] | nº Amastigotes/Infected Cell ([4]; mean ± SD) | Vero Cells CC50 (Vero cells) | L. infantum (pm) IC50 [5] | morphological alterations of promastigotes [6] |
| --- | --- | --- | --- | --- | --- | --- | --- | --- | --- | --- |
| C/C1=C\CC2(OC2(C)C)C(=O)C/C(C)=C/CC1 (stereo not drawn) [Compound 4] | 88.8 (≈ 379 µM) | > 100 | 51.6 (≈ 220 µM) | > 100 | – | – | – | – | – | – |
| CC(C)=C1CC(=O)[C@]2(C)CC[C@H]2[C@@H](C)CC1=O [Compound 3] | 35.5 (≈ 151 µM) | > 100 | > 100 | > 100 | – | – | – | – | – | – |
| C=C[C@]1(C)CC(=O)C(=C(C)C)C[C@H]1C(=C)C [Compound 1, β-elemenone] | > 100 | > 100 | > 100 | > 100 | – | – | – | – | – | – |
| C[C@@H]1[C@H](O)[C@@H](C)/C=C/C=C/C=C/C=C/C=C/C=C/C=C/[C@H](O[C@@H]2O[C@H](C)[C@@H](O)[C@H](N)[C@@H]2O)C[C@@H]2O[C@](O)(C[C@@H](O)C[C@@H](O)[C@H](O)CC[C@@H](O)C[C@@H](O)CC(=O)O[C@H]1C)C[C@H](O)[C@H]2C(=O)O [AmB, amphotericin B] | – | – | – | – | 8.9 ± 0.0 | 6.4 ± 3.7 | 1.4 ± 0.7 | 7.11 [21] µg/mL | 0.01 [22] µg/mL | strong morphological alterations |
